Measured values reported in patent publication US20260193571A1, “AQUEOUS COMPOSITION CONTAINING CUCURBITURILS” (Clariant International Ltd, priority 2022, published 2026).
In brackets after ≈: the same amount, converted by molar mass.

Legend:
[1] = Increasing the solubility of cucurbiturils in water: appearance of aqueous compositions comprising cucurbiturils; assay type: physicochemical; conditions: 0.2 percent by weight cucurbituril sample, 25° C.
Protocol: Compositions consisting of the cucurbituril sample and water and compositions consisting of the cucurbituril sample, other substances but no solubilizing agents according to component Z2) of the inventive aqueous compositions, and water were prepared and used as comparative compositions.

[2] = in water at room temperature (25° C.); cited from earlier work
[3] = Malodor removing effect: headspace GC-MS measurement of odorants; conditions: headspace 60° C. 30 min, no agent/no cucurbiturils = 100
Protocol: An artificial malodor composition was prepared by mixing 10 mg of 2,3-butanedione, 5 mg of octanal, 30 mg of isovaleraldehyde, 300 mg of isovaleric acid and 50 mg of hexanal in 1 L of water.
The cucurbituril sample contains cucurbit[6]uril (50% by weight), cucurbit[7]uril (35% by weight) and cucurbit[8]uril (10% by weight).
Aqueous cucurbituril composition B: 0.5% by weight of the cucurbituril sample was mixed in water.
1 mL of aqueous cucurbituril composition A or B, 1 mL of malodor composition and 3 mL of water were mixed.
1 mL of 5% by weight of solubilizing agent in water, 1 mL of malodor composition and 3 mL of water were mixed.
4 mL of water and 1 mL of malodor composition were mixed.
The mixtures were prepared in headspace vials. The vials were then closed tightly and analyzed.
Analytical evaluation of malodor in the vials was conducted through a headspace measurement. A Gas Chromatograph Agilent 9000 Intuvo equipped with an autosampler Agilent 7697A equipped with a headspace extracting syringe, a Mass Detector Agilent MSD 5977B was used.
The headspace vials were equilibrated at 60° C. for 30 min at the autosampler before the measurement. A gas phase sample of 1000 μL was extracted from the vial and injected into the GC column. • Carrier gas: Helium 22.7 psi, split 5:1 • Column: DB-624 UI (length 60m, diameter 250 μm, size of film 1.4 μm) • Oven: Initial 40° C.—Hold time 2 mb—Rate 20° C./min—Temperature 260° C. —Hold time 5 min • Mass detector parameter: run in select ion mode. The peak area of each odorant was then integrated and recorded.

[4] = substance at 10 percent by weight in water
[5] = substance at 5 percent by weight in water
[6] = mixture contains cucurbiturils: 1 mL composition A (5% agent + 0.5% cucurbituril sample) or B (0.5% sample only) + 1 mL malodor composition + 3 mL water
[7] = mixture without cucurbiturils: 1 mL of 5% by weight solubilizing agent + 1 mL malodor composition + 3 mL water

[Ca+2].[Cl-].[Cl-] [CaCl2]
Appearance [1, 4]: very turbid

CCO [Ethanol]
Appearance [1, 4]: very turbid

CC(O)CO (stereo not shown) [Propylene glycol]
Appearance [1, 4]: very turbid

O=C1N2CN3C(=O)N4CN5C(=O)N6CN7C(=O)N8CN9C(=O)N%10CN%11C(=O)N%12CN1C1C2N2CN%13C(=O)N(CN%14C(=O)N(CN%15C(=O)N(CN%16C(=O)N(CN%17C(=O)N(CN1C2=O)C%12C%11%17)C%10C9%16)C8C7%15)C6C5%14)C4C3%13 (stereo not shown) [cucurbit[6]uril]
water solubility [2]: 18 µg/mL (≈ 18.1 µM)

O=C1N2CN3C(=O)N4CN5C(=O)N6CN7C(=O)N8CN9C(=O)N%10CN%11C(=O)N%12CN%13C(=O)N%14CN%15C(=O)N%16CN1C1C2N2CN%17C(=O)N(CN%18C(=O)N(CN%19C(=O)N(CN%20C(=O)N(CN%21C(=O)N(CN%22C(=O)N(CN%23C(=O)N(CN1C2=O)C%16C%15%23)C%14C%13%22)C%12C%11%21)C%10C9%20)C8C7%19)C6C5%18)C4C3%17 (stereo not shown) [cucurbit[8]uril]
water solubility [2]: 17 µg/mL (≈ 12.8 µM)

Alkylbenzene sulfonate
Appearance [1, 5]: very turbid

C12/14 alkyl ethoxylate with 8 EO
Appearance [1, 5]: very turbid

Sodium laureth sulfate
Appearance [1, 5]: very turbid

lauramine oxide [Genaminox LA]
Appearance [1, 5]: clear
Relative peak area 2,3-butadione [3, 6]: 11
Relative peak area hexanal [3, 6]: 9
Relative peak area isovaleraldehyde [3, 6]: 6
Relative peak area isovaleric acid [3, 6]: 3
Relative peak area octanal [3, 6]: 73
Relative peak area 2,3-butadione [3, 7]: 181
Relative peak area hexanal [3, 7]: 203
Relative peak area isovaleraldehyde [3, 7]: 182
Relative peak area isovaleric acid [3, 7]: 10
Relative peak area octanal [3, 7]: 134
